Test [1] deals with Mycobacterium tuberculosis. The experiment in a line: Antituberculosis activity against Mycobacterium tuberculosis H37Rv ATCC 27294. The test is classed as functional.
Test [2] in a line: Selectivity ratio of IC50 for human THP1 cells to MIC for Mycobacterium tuberculosis H37Rv ATCC 27294. Format: functional, THP-1.
Test [3] concerns Mycobacterium tuberculosis. As to the kind of experiment: Antituberculosis activity against Mycobacterium tuberculosis isolate A. Format: functional.
The next test deals with Mycobacterium avium. As to the kind of experiment: Antituberculosis activity against Mycobacterium avium ATCC 25291. The test is classed as functional, Mycobacterium avium subsp. avium ATCC 25291.
The test system of a further test is Mycobacterium kansasii. As to the kind of experiment: Antituberculosis activity against Mycobacterium kansasii ATCC 12478. The test is classed as functional.
In the next test the test system is THP-1. As to the kind of experiment: Cytotoxicity against human THP1 cells after 72 hrs by MTT assay. Format: cell-based. The note with it: THP-1, 72 h. (Tetrazolium assays rely on reduction of a dye to a coloured formazan, in cell work by metabolically active cells.)
Test [4] is described as follows: Selectivity ratio of IC50 for human THP1 cells to MIC for Mycobacterium tuberculosis isolate A. The test is classed as functional, THP-1.

≈ marks a conversion by molar mass, not a printed value. A value given as a limit tells only on which side of the number the result lay.

In general, MIC refers to the smallest concentration in the dilution series that meets the test's criterion for growth inhibition. Take `CC(=O)Nc1ccc(Cl)c(S(=O)(=O)NC(=O)Nc2nccc(C)n2)c1`: in test [1], the MIC was over 100 µg/mL.

The IC50 is the concentration that gives 50% inhibition. With `Cc1ccnc(NC(=O)NS(=O)(=O)c2cc(NC(=O)CCl)ccc2Cl)n1`, the Selectivity ratio in test [2] and in test [4] was 10 each time. Further, the MIC in test [1] is 10 µg/mL (≈ 23.9 µM); in test [3], 10 µg/mL (≈ 23.9 µM); against Mycobacterium avium, over 100 µg/mL; with Mycobacterium kansasii, 20 µg/mL (≈ 47.8 µM). This compound also had an IC50 with THP-1 of 138 µg/mL (≈ 330 µM).

The compound `Cc1ccnc(NC(=O)NS(=O)(=O)c2cc(NC(=O)C(C)C)ccc2Cl)n1` registered a minimum inhibitory concentration (MIC) in test [1] of over 100 µg/mL.

Consider `Cc1ccnc(NC(=O)NS(=O)(=O)c2cc(NC(=O)C3CC3)ccc2Cl)n1`, for which, in test [1], the MIC was over 100 µg/mL.

In test [1], `Cc1ccnc(NC(=O)NS(=O)(=O)c2cc(NC(=O)C(C)(C)C)ccc2Cl)n1` yielded a minimum inhibitory concentration (MIC) of over 100 µg/mL.

`C=CC(=O)Nc1ccc(Cl)c(S(=O)(=O)NC(=O)Nc2nccc(C)n2)c1` had an MIC in test [1] of 20 µg/mL (≈ 50.5 µM).

Turning to `Cc1ccnc(NC(=O)NS(=O)(=O)c2cc(NC(=O)C(C)Cl)ccc2Cl)n1` (stereo not drawn), the MIC in test [1] is over 100 µg/mL.

Consider `CC(=O)OCC(=O)Nc1ccc(Cl)c(S(=O)(=O)NC(=O)Nc2nccc(C)n2)c1`, for which, in test [1], the minimum inhibitory concentration (MIC) was over 100 µg/mL.

`CCOC(=O)C(=O)Nc1ccc(Cl)c(S(=O)(=O)NC(=O)Nc2nccc(C)n2)c1`: the MIC in test [1] was over 100 µg/mL.

On to `Cc1ccnc(NC(=O)NS(=O)(=O)c2cc(NC(=O)C(F)(F)C(F)(F)C(F)(F)F)ccc2Cl)n1`, for which the MIC in test [1] was over 100 µg/mL.

In turn, `Cc1ccnc(NC(=O)NS(=O)(=O)c2cc(NC(=O)c3ccccc3)ccc2Cl)n1` showed an MIC in test [1] of 100 µg/mL (≈ 224 µM).

As to `Cc1ccnc(NC(=O)NS(=O)(=O)c2cc(NC(=O)C(F)(F)F)ccc2Cl)n1`, in test [1], the MIC is over 100 µg/mL.

On to `Cc1ccnc(NC(=O)NS(=O)(=O)c2cc(NC=O)ccc2Cl)n1`, for which, in test [1], the MIC is over 100 µg/mL.

On to `COc1ccnc(NC(=O)NS(=O)(=O)c2cc(NC(C)=O)ccc2Cl)n1`, for which the MIC in test [1] was over 100 µg/mL.

As for `COc1ccnc(NC(=O)NS(=O)(=O)c2cc(NC(=O)CCl)ccc2Cl)n1`, the Selectivity ratio in test [2] and in test [4] was 10 throughout. The MIC in test [1] was 10 µg/mL (≈ 23 µM); in test [3], 10 µg/mL (≈ 23 µM); in the test on Mycobacterium avium it was over 100 µg/mL; against Mycobacterium kansasii it was 20 µg/mL (≈ 46.1 µM). The compound further yielded an IC50 in the test with THP-1 of 180 µg/mL (≈ 414 µM).

`COc1ccnc(NC(=O)NS(=O)(=O)c2cc(NC(=O)C(C)C)ccc2Cl)n1` came in with an MIC in test [1] of over 100 µg/mL.

The compound `COc1ccnc(NC(=O)NS(=O)(=O)c2cc(NC(=O)C3CC3)ccc2Cl)n1` came in with an MIC in test [1] of over 100 µg/mL.

In test [1], `COc1ccnc(NC(=O)NS(=O)(=O)c2cc(NC(=O)C(C)(C)C)ccc2Cl)n1` showed an MIC of over 100 µg/mL.

For the compound `C=CC(=O)Nc1ccc(Cl)c(S(=O)(=O)NC(=O)Nc2nccc(OC)n2)c1`, the MIC in test [1] turned out to be 40 µg/mL (≈ 97.1 µM).

Take `COc1ccnc(NC(=O)NS(=O)(=O)c2cc(NC(=O)C(C)Cl)ccc2Cl)n1` (stereo not drawn): the MIC in test [1] was over 100 µg/mL.

`COc1ccnc(NC(=O)NS(=O)(=O)c2cc(NC(=O)COC(C)=O)ccc2Cl)n1`: in test [1], the MIC is over 100 µg/mL.

In the case of `CCOC(=O)C(=O)Nc1ccc(Cl)c(S(=O)(=O)NC(=O)Nc2nccc(OC)n2)c1`, the MIC in test [1] was over 100 µg/mL.

In test [1], `COc1ccnc(NC(=O)NS(=O)(=O)c2cc(NC(=O)C(F)(F)C(F)(F)C(F)(F)F)ccc2Cl)n1` had an MIC of over 100 µg/mL.

On to `COc1ccnc(NC(=O)NS(=O)(=O)c2cc(NC(=O)C(F)(F)F)ccc2Cl)n1`, for which the MIC in test [1] was over 100 µg/mL.

Turning to `COc1ccnc(NC(=O)NS(=O)(=O)c2cc(NC=O)ccc2Cl)n1`, in test [1], the MIC is over 100 µg/mL.

Turning to `COC(=O)c1ccccc1S(=O)(=O)NC(=O)Nc1nc(C)cc(C)n1` [SULFOMETURON METHYL], the MIC in test [1] worked out at 10 µg/mL (≈ 27.4 µM).

These data come from ChEMBL document CHEMBL1949543, “Synthesis and evaluation of novel monosubstituted sulfonylurea derivatives as antituberculosis agents” (Eur J Med Chem, 2012).
